These results are taken from patent US10238676B2, “Application of ginsenoside RG3 in preparing medicine for preventing and/or treating dementia, and medicine for treating dementia” (priority 2013, dated 2019).

Assay [1] has as its system patients with Alzheimer's disease. The assay is described as follows: Revised Hasegawa dementia scale (HDS-R) scoring of patients with Alzheimer's disease. Format: in vivo, human. As for the experimental part:
Both groups take medicine for 12 continuous weeks. 2 ml of cerebrospinal fluid is collected by lumbar puncture, and is stored at −80° C., the β-amyloid protein (Aβ) content is determined by using enzyme-linked immunosorbent assay (ELISA). A revised Hasegawa dementia scale (HDS-R) is used to score, and the scores before and after treatment are compared, increasing in scores means validness, and unchanging or decreasing in scores means invalidness. The enumeration data adopts χ^2 test, the comparison of measurement data adopts t-test, all data is processed by adopting SPSS12.0 statistical software.
Analysis on the clinical therapeutic effect of the two groups.

Assay [2] deals with intracerebral cholinergic nerve system of rat model with Alzheimer's disease. As to the kind of experiment: AChE positive nerve fiber density of cortex and hippocampal formation, rat model with Alzheimer's disease (D-galactose + IBO). Format: in vivo, Wistar rats. To be noted: AD model rats, Huperzine A 0.3 mg/kg/d, 6 weeks. From the text: 60 Wistar rats each of which having the body weight of 300-500 g are randomly divided into 6 groups, with 10 in each group, and the groups are named a preliminary elder normal control group, a preliminary elder AD model group, a positive medicine Huperzine A group, and high-dose, medium-dose and low-dose of Ginsenoside Rg3 topical preparation groups according to different treatment methods, respectively. The rats are bred in separate cages, each holding 4-5 rats, with natural lighting and random drinking and feeding provided. Physiological saline is injected in the abdominal cavity and grain of each rat in the preliminary elder normal control group; Galactose intraperitoneal injection and IBO intracerebral injection are given to all rats in the preliminary elder AD model group, the positive medicine Huperzine A group, and the high-dose, medium-dose and low-dose Ginsenoside Rg3 topical preparation groups; while the rats in the Huperzine A group and the high-dose, medium-dose and low-dose of Ginsenoside Rg3 topical preparation groups are subjected to D-galactose injection for modeling, rat of each group is given Huperzine A 0.3 mg/kg/d and Ginsenoside Rg3 10, 5, 2.5 mg/kg/d respectively. Ginsenoside Rg3 is applied to both sides of the nose of each rat of Ginsenoside Rg3 topical preparation groups. All the rats are subjected to the medicines continuously for 6 weeks and then intracerebral bilateral Meynert nuclei injection is carried out. Reference is made to a rat cerebral stereotaxic atlas for Meynert nuclei localization, and localization coordinates are AP-0.8 mm, Late 2.6 mm and DV 8.2 mm During intracerebral injection, a rat is anesthetized with 3% pentobarbital sodium (30 mg/kg) and then immobilized to a cerebral stereotaxic apparatus, physiological saline dissolved IBO (injection 1 μl for each side containing 5 μg of IBO) or 1 μl normal saline is injected slowly into a Meynert nucleus, each side takes injection for 5 minutes, and needle retaining for 10 minutes, wherein all the rats are subjected to cerebral perfusion with 4% paraformaldehyde after modeling and are then immobilized for 24 hours, and the brain is put in a sucrose phosphate buffer until brain tissue blocks sink, the blocks are frozen in a incubator and serially sectioned to […] in thickness. The sections are subjected to acetycholinesterase (AChE) histochemical staining by methods recommended by Hedreen, et al. Observation is given to the frontal lobe, the parietal lobe, the occipital lobe and the entorhinal cortex (layer II) as well as parts in a hippocampal CA1 region of the hippocampal formation such as a stratum oriens, a stratum radiatum, a stratum lacunosum-moleculare and a stratum moleculare of dentate gyrus for observing their AChE positive nerve fiber densities, and the AChE positive nerve fiber densities are counted with a number of intersections of positive fibers with a standard grid by using a micrometer used for a microscope.
A significance level a is equal to 0.05.

A further assay has as its system rat blood-brain barrier. To be noted: rats drenched with borneolum syntheticum paraffin oil solution; cited from earlier work.
Where [3] appears, read: of 18 patients per group, 12 weeks.

`COc1cc2c(cc1OC)C(=O)C(CC1CCN(Cc3ccccc3)CC1)C2` (centres unmarked) [Donepezil, donepezil, reference compound]: in assay [1] (18 AD patients per group, Rg3 oral liquid 10 mg/d or donepezil 5 mg/d, 12 weeks), the “effective rate (patients increased in HDS-R scores)” value was 72.2%. The “Scores of clinical symptom (HDS-R), post treatment” value in assay [1] (AD inpatients, n = 18, Rg3 oral liquid 10 mg/d or donepezil 5 mg/d orally, 12 weeks) was determined as 17.3 ± 9.6. Besides, the “Scores of clinical symptom (HDS-R), before treatment” value in assay [1] (AD inpatients, n = 18 per group, baseline) is recorded as 13.5 ± 4.2^Δ. Moreover, in assay [1] (setting [3]), the “number of patients constant in scores” value is listed as 3, the “number of patients decreased in scores” value is reported as 2 and the “number of patients increased in scores of clinical symptom” value was found to be 13.
As for `C/C=C1\[C@H]2C=C(C)C[C@]1(N)c1ccc(=O)[nH]c1C2` [Huperzine, Huperzine A, reference compound], in assay [2], the “N Entorhinal cortex AchE positive nerve fiber density” value is reported as 132.4 ± 19.2^# 10^2 · mm^−2, the “N Frontal lobe AchE positive nerve fiber density” value is reported as 122.1 ± 16.1^## 10^2 · mm^−2, the “N Occipital lobe AchE positive nerve fiber density” value is 131.6 ± 9.0^Δ 10^2 · mm^−2 and the “Parietal lobe AchE positive nerve fiber density” value is 108.7 ± 15.8^##Δ 10^2 · mm^−2. In addition, in assay [2] (hippocampal formation), the “N Stratum lacunosum-moleculare AchE positive nerve fiber density” value is recorded as 83.3 ± 9.6 10^2 · mm^−2, the “N Stratum moleculare of dentate gyrus AchE positive nerve fiber density” value is 120.0 ± 10.7^# 10^2 · mm^−2, the “N Stratum oriens AchE positive nerve fiber density” value is reported as 138.7 ± 20.1 10^2 · mm^−2 and the “N Stratum radiatum AchE positive nerve fiber density” value is recorded as 121.1 ± 15.2 10^2 · mm^−2.
On to `CC1(C)C2CCC1(C)C(O)C2` (centres unmarked) [borneolum syntheticum], for which, in the assay with rat blood-brain barrier, the “time after drench at which tight junction changes start” value is 4 h, the “time at which tight junction changes reach peak” value was 8 h and the “time at which tight junction returns to normal” value was 48 h.
